From patent publication US20080207538A1, “Enhanced Production of Functional Proteins From Defective Genes” (priority 2004, published 2008)

Legend:
[1] = system: stop codon inserted into the reading frame of firefly luciferase; experiment: stop codon read-through, dual luciferase assay in transfected 293T cells; assay type: cell-based, human; conditions: relative to untreated transfected cells, 24 hour incubation
Procedure: Plasmid construction. The wild type human fibroblast cell line GM02037 (Coriell Cell Repositories, NJ) was used as the DNA template for atm promoter amplification. In brief, the Qiagen Blood & Cell Culture DNA Mini kit was used to purify genomic DNA. ATM gene promoter primers, which were used to amplify the desired fragment DNA, were designed based on the sequence in Genebank. The forward primer sequence employed was […] (SEQ ID NO:1) and the reverse primer was […] (SEQ ID NO:2). PCR was carried out using the Roche Expand High Fidelity PCR system. The amplified atm promoter region was then cloned into the TOPO2.1 PCR vector (Invitrogen) for sequencing verification and subsequently subcloned into the promoterless plasmid PA3Luc. Firefly luciferase cDNA was mutated (QuikChange Site-Directed Mutagenesis Kit) in the desired region to furnish the three stop codons, as shown as FIG. 1(C). The CMV driven Renilla luciferase plasmid was purchased from Promega as the internal control for the dual luciferase assay.
Transfections were performed using GeneJammer reagent (Stratagene) based on the protocol from the manufacturer. In brief, approximately […] HEK293T cells were seeded into white 96 well plates (Corning) and grown for less than 24 hours. Cells were transfected with 0.6 μL of GeneJammer and 0.1 μg plasmids. In the dual luciferase assay, the plasmid ratio of ATM promoter-driven firefly luciferase to CMV promoter-driven Renilla luciferase was 30:1. In the dual luciferase experiments that utilized the stop codon-containing firefly luciferase genes, the ratio was 40:1. On the second day after transfection, the medium in each well was changed, and the promoter and/or nonsense-suppressing agents added to the wells for a 24 hour incubation period. The cells were subsequently lysed and promoter activity/nonsense suppression efficiency then assessed via the dual luciferase assay.
Dual luciferase assay. The dual luciferase kit was purchased from Promega and the protocol employed was conducted according to the directions supplied by the manufacturer. In brief, cells were washed with PBS and lysates were prepared using passive lysis buffer. Luminescence was determined with a Molecular Devices Lmax 96 well plate luminometer. Light emission was measured after each of the 100 μL luminescence substrates and/or stop solutions were injected. ATM promoter activity was calculated by the ratio of relative light units of flash (firefly) to glow (renilla) luminescence in each well, which was compared with control wells (cultured only in medium with plasmid but no drug treatment) in each plate. In the case of the stop codon suppression studies, controls also included cells containing the plasmids without the inserted stop codon, which were treated with nonsense suppressing and/or promoter activating agents. All individual treatments in a given experiment were performed in triplicate and all experiments repeated 3-10 times.
An evaluation was made of the ability of aminoglycosides, in combination with promoter activating agents, to augment read-through of a stop codon inserted into the reading frame of firefly luciferase (FIG. 1C).

nonsense mutations = conditions: reported, Keeling and Bedwell, 2002; cited from earlier work
[2] = system: patients with sickle-cell anemia; conditions: Perrine et al., 1993; cited from earlier work
atm promoter = experiment: cell-based screen for atm promoter enhancing agents (atm/pA3LUC dual luciferase, 293T cells); design: species or system human; conditions: transiently transfected 293T cells; firefly/renilla luciferase
Excerpt: Plasmid construction. The wild type human fibroblast cell line GM02037 (Coriell Cell Repositories, NJ) was used as the DNA template for atm promoter amplification. In brief, the Qiagen Blood & Cell Culture DNA Mini kit was used to purify genomic DNA. ATM gene promoter primers, which were used to amplify the desired fragment DNA, were designed based on the sequence in Genebank. The forward primer sequence employed was […] (SEQ ID NO:1) and the reverse primer was GCCACGGGAGGAGGCGAG (SEQ ID NO:2). PCR was carried out using the Roche Expand High Fidelity PCR system. […]
Transfections were performed using GeneJammer reagent (Stratagene) based on the protocol from the manufacturer. […] The cells were subsequently lysed and promoter activity/nonsense suppression efficiency then assessed via the dual luciferase assay.
Dual luciferase assay. […] Luminescence was determined with a Molecular Devices Lmax 96 well plate luminometer. Light emission was measured after each of the 100 μL luminescence substrates and/or stop solutions were injected. ATM promoter activity was calculated by the ratio of relative light units of flash (firefly) to glow (renilla) luminescence in each well, which was compared with control wells (cultured only in medium with plasmid but no drug treatment) in each plate. […]

[3] = system: animal models of cystic fibrosis and Duchenne muscular dystrophy; conditions: reported; cited from earlier work
atm message = experiment: atm mRNA quantitation by real time PCR (RT-PCR) after drug treatment; assay type: cell-based, human; conditions: for Fold-increase (atm message levels): relative to untreated cell line
Procedure: Cell culture and transfection. Human Kidney HEK293T cell was a gift from Professor Philipp Scherer in the Department of Cell Biology at the Albert Einstein College of Medicine. All other cell lines were purchased from Coriell Cell Repositories, NJ. HEK293T cells were maintained in Dulbecco's Modified Eagle Medium with 1 g/L D-glucose and 10% fetal bovine serum. The Human AT fibroblast cell line GM05823 was cultured in MEM medium with 1 g/L D-glucose and 15% fetal bovine serum. The Human lympoblastoid cell lines GM 13810 and GM13860 were cultured in RPMI 1640 medium with 10% heat inactivated fetal bovine serum and 1 g/L of D-glucose. All cell lines were incubated at 37° C. in a humidified 5% CO2 atmosphere.
mRNA Quantitation. Single-stranded cDNAs were synthesized by reverse transcription, using a First Strand cDNA Synthesis kit (Invitrogen), and then used as a template in polymerase chain reactions. ATM mRNA was primarily quantified using real time polymerase chain reaction (PCR). In brief, cells were treated with the desired drugs or combinations thereof under conditions identical to those described above for the dual luciferase assay. Cells were lysed and RNA extracted with the TRIzol reagent (Invitrogen). Approximately 1 μg of total RNA in each sample was subjected to CDNA synthesis using the First Strand cDNA Synthesis kit (Invitrogen). In the real time PCR reaction, the FAM labeled MGB probe, CCAGCTATTTGGTTTGAG (SEQ ID NO:3), was designed by the Primer Express software from Applied Biosystems (AB) and synthesized by AB. The human β-actin MGB probes, VIC or FAM fluorescently labeled, were purchased from AB. All other reaction reagents were purchased from AB. PCR reactions were performed using the ABI PRISM 7000 Sequence Detection System in triplicate. Some samples were also tested on the ABI 7700 Sequence Detection System for verification and essentially identical results were obtained with both real time PCR instruments. All collected data were compared with a […] control. In addition to real time PCR, the branched chain DNA (bDNA) RNA quantitation method was employed as well. Briefly, the QuantiGene kit as well as the customer designed atm probe sets were purchased from Genospectra. The latter probes target the same region on the atm message RNA region as the real time PCR probes. The cells were treated as described above for the dual luciferase assay. Cell lysates were transferred into a capture plate and atm mRNA allowed to hybridize with the probe set at 53° C. overnight. After 16-20 hours, the signal was amplified and subsequently read using a Molecular Devices Lmax luminometer. The internal human β-actin probe sets were purchased from Genospectra. All experiments were performed in triplicate.
The effect of ofloxacin on native atm message levels was subsequently examined in 293T cells as well as in lymphoblastoid and primary fibroblast cell lines derived from A-T patients (Table 1). Message levels are enhanced 2.4±0.1 fold in 293T cells treated with ofloxicin for 24 hours. By contrast, an up to nearly 6-fold increase is observed in ATM-deficient (A-T) cell lines. The latter results offer the intriguing possibility that atm message levels are elevated more dramatically in an ATM-deficient environment.

With `CN[C@@H]1[C@@H](O)[C@@H](O[C@@H]2[C@@H](O)[C@H](O[C@H]3O[C@H]([C@@H](C)O)[C@@H](O)[C@H](O)[C@H]3N)[C@@H](N)C[C@H]2N)OC[C@]1(C)O` [Geneticin, geneticin] the “Fold-increase (read-through)” value ([1]; amber (UAG) stop codon) was 14.9 ± 1.9 fold, the “Fold-increase (read-through)” value ([1]; ochre (UAA) stop codon) was 7.9 ± 3.0 fold and the “Fold-increase (read-through)” value ([1]; opal (UGA) stop codon) was 6.5 ± 0.8 fold.
In the case of `NCC[C@H](O)C(=O)N[C@@H]1C[C@H](N)[C@@H](O[C@H]2O[C@H](CN)[C@@H](O)[C@H](O)[C@H]2O)[C@H](O)[C@H]1O[C@H]1O[C@H](CO)[C@@H](O)[C@H](N)[C@H]1O` [amikacin], the “effectiveness at suppressing nonsense mutations compared with tobramycin” value (nonsense mutations) is listed as “more effective”.
For `CCCC(=O)[O-].[Na+]` [Sodium butyrate, sodium butyrate], the toxicity in patients [2] is given as “minimal toxicity”.
With `Nc1nc2nc[nH]c2c(=S)[nH]1` [Thioguanine, thioguanine] the “activation of the atm promoter” value (atm promoter) was “induce atm promoter activity”.
In the case of `O=C(O)c1cccc(-c2noc(-c3ccccc3F)n2)c1` [PTC124], the “efficacy in animal models” value [3] is listed as “effective”.
With gentamicin the “Fold-increase (read-through)” value ([1]; amber (UAG) stop codon) was 8.2 ± 1.8 fold, the “Fold-increase (read-through)” value ([1]; ochre (UAA) stop codon) was 6.7 ± 1.5 fold and the “Fold-increase (read-through)” value ([1]; opal (UGA) stop codon) was 8.7 ± 1.2 fold. The “effectiveness at suppressing nonsense mutations compared with tobramycin” value (nonsense mutations) was “more effective”.
For `CC1COc2c(N3CCN(C)CC3)c(F)cc3c(=O)c(C(=O)O)cn1c23` (stereo not shown) [Ofloxacin, ofloxacin], the “Message levels enhanced (atm)” value (atm message; 293T cells, treated for 24 hours) was 2.4±0.1 fold, the “increase in atm message levels” value (atm message; ATM-deficient (A-T) cell lines, summary of Table 1) was no more than 6 fold and the “Fold-increase (atm message levels)” value (atm message; GM05823 (A-T) fibroblast cell line, 2 hours after ofloxacin) was 2.2 ± 0.1 fold. The “Fold-increase (atm message levels)” value (atm message; GM05823 (A-T) fibroblast cell line, 6 hours after ofloxacin) was 3.0 ± 0.2 fold, the “Fold-increase (atm message levels)” value (atm message; GM05823 (A-T) fibroblast cell line, 24 hours after ofloxacin) was 5.8 ± 0.4 fold and the “Fold-increase (atm message levels)” value (atm message; GM13810 (A-T) lymphoblastoid cell line, 2 hours after ofloxacin) was 1.2 ± 0.2 fold. The “Fold-increase (atm message levels)” value (atm message; GM13810 (A-T) lymphoblastoid cell line, 6 hours after ofloxacin) was 2.3 ± 0.3 fold, the “Fold-increase (atm message levels)” value (atm message; GM13810 (A-T) lymphoblastoid cell line, 24 hours after ofloxacin) was 5.4 ± 0.7 fold and the “Fold-increase (atm message levels)” value (atm message; GM13860 (A-T) lymphoblastoid cell line, 2 hours after ofloxacin) was 3.8 ± 0.9 fold. For the same compound, the “Fold-increase (atm message levels)” value (atm message; GM13860 (A-T) lymphoblastoid cell line, 6 hours after ofloxacin) was 2.3 ± 0.3 fold and the “Fold-increase (atm message levels)” value (atm message; GM13860 (A-T) lymphoblastoid cell line, 24 hours after ofloxacin) was 3.3 ± 0.3 fold.
